Test results: US10363229B2, “Methods and compositions for the treatment of cancer” (priority 2009, dated 2019)

Experiments:
[1] = tested on: M3 Cloudman melanoma cells; experiment: Live cell video microscopy of melanoma cells (morphology, contact inhibition); assay type: cell-based, mouse; details: equimolar concentration substituted for 2% methyl sulfone
Method: (§1) Cloudman S-91 mouse melanoma cells (sub-clone M-3, CCL 53.1; American Type Culture Collection, Rockville, Md.) were grown in RMPI medium supplemented with 10% fetal bovine serum (Invitrogen, Inc) and 5% penicillin-streptomycin (Invitrogen, Inc). Mouse breast cancer cells (66Cl-1; American Type Culture Collection, Rockville, Md.) that are estrogen-receptor negative were grown in DMEM medium supplemented with 10% fetal bovine serum (Invitrogen, Inc) and 5% penicillin/streptomycin (Invitrogen, Inc). Human T-cell leukemic lymphocytes (CEM; American Type Culture Collection, Rockville, Md.) were grown in MEM medium supplemented with 7% fetal calf serum. Cultures were passaged twice a week.
Cells were plated on 35 mm tissue culture dishes at concentration of 10^5 cells/plate, unless stated otherwise, and incubated at 37° C., 5% CO2. After 24 hours, methyl sulfone (0-10% in medium) was added to appropriate plates and immediately videotaped with a Nikon TE300 inverted microscope equipped with a 10×0.25 NA Plan Achromat objective lens. Control cells (no drug) were videotaped as described above. Time series (10 min) of phase contrast images were acquired at a video rate of 1 frame/5 s with a Watec-902B CCD video camera (Watec Corp., Japan) via the stream acquisition option of Metamorph image acquisition and analysis software (Universal Imaging Corp., Downington, Pa.). During recordings, cells were kept at 37° C. with 10 mM Hepes, pH 7.4. Time series of cells +/−2% methyl sulfone were obtained every 24-48 hours for up to 6 weeks.
(§2) M3 Cloudman melanoma cells were plated into culture dishes containing RPMI medium. After 24 hour media was changed to control medium (no drug) or to media containing different concentrations of methyl sulfone (1-10% methyl sulfone in RPMI medium). Cells were examined by live cell video microscopy immediately after adding drug and every 24 hours up to 144 hours.
The possibility that the data generated from treating cells with methyl sulfone was a nonspecific effect due to changes in extracellular osmolarity was considered. To test this possibility an equimolar concentration of urea was substituted for 2% methyl sulfone; urea has a chemical structure and dipolar moment that is similar to methyl sulfone. […] We next replaced 2% methyl sulfone with an equimolar concentration of dimethyl sulfoxide (DMSO).

[2] = tested on: Cloudman S-91 mouse melanoma cells (sub-clone M-3); experiment: Annexin V-FITC/propidium iodide apoptosis assay in melanoma cells; assay type: cell-based
Method: as §1
Early and late apoptosis was assessed with the Annexin V-FITC Apoptosis Detection Kit from PharMingen (Becton-Dickinson, San Diego, Calif.). Images were obtained at the Center for Cell Analysis and Modeling, University of Connecticut Health Center, Farmington, Conn., with an Axioplan CCD Microscope equipped with a 40×1.3 NA FL objective lens and Photometrics PXL-EEV37 high speed digital cooled CCD camera via Metamorph image acquisition and analysis software (Universal Imaging Corp., Downington, Pa.).
as §2
Briefly, melanoma cells (Cloudman M3 cell line) were plated at 10^5 cells/ml in RPMI medium. After 24 hours, medium was replaced with RPMI containing different concentrations (grams/volume) of MMS, MES and EES. After 24 hours, apoptosis was assayed using the Becton-Dickinson Annexin V-FITC/Propidium Iodide Kit and a Nikon fluorescent microscope as described by the manufacturer.

[3] = tested on: microtubules in melanoma cells; experiment: Immunofluorescence of microtubules, incl. vinblastine stability test; assay type: cell-based, mouse; details: 10^−7 M vinblastine, no methyl sulfone
Method: Cells were plated in 6-100 mm tissue culture plates, each containing 1 polylysine-coated 10-well slide, or plated onto polylysine-coated coverslips. Once cells were approximately 50% confluent, 2% methyl sulfone was added to cells for 10, 30, 60, 90, and 120 minutes. At each time point cells were placed in microtubule stabilizing buffer ( ) for 10 minutes followed by incubation in −20° C. methanol for 5 minutes. Cells were washed twice in 0.1% Triton X-100 in PBS at room temperature, then incubated with mouse monoclonal anti-alpha-tubulin antibody (Santa Cruz Biotech, Calif.; diluted 1/200 in 1% BSA/PBS) for 1.5 hours. Cells were washed 5 times in 0.1% Triton X-100/PBS, 3 minutes each. Cells were incubated with secondary antibody (Alexa Fluor 568 rabbit anti-mouse antibody; diluted 1/100 in 1%/PBS) for 30 minutes in the dark. Cells were washed five times in 0.1% Triton X-100/PBS, three minutes each. Cells were washed two times in PBS at 2 minute intervals and incubated with DAPI (1 μg/ml in PBS) for 5 minutes at room temperature and in the dark. Cells were washed in PBS for one minute. SlowFade was added to glass slides, coverslips were placed cell side down and sealed with nail polish. Microtubules were viewed at the Center for Cell Analysis and Modeling, University of Connecticut Health Center, Farmington, Conn., with an Axioplan CCD Microscope equipped with a 40×1.3 NA FL objective lens and Photometrics PXL-EEV37 high speed digital cooled CCD camera via Metamorph image acquisition and analysis software (Universal Imaging Corp., Downington, Pa.).
One assay to test stability of microtubules is to give cells increasing concentrations of a microtubule-disassembly drug and use immunofluorescence microscopy to assess microtubule lengths (Caron et al). A higher concentration of drug will be required to disassemble the more stabilized microtubules. We used different concentrations of the anti-microtubule drug, vinblastine, to assess microtubule stability in control cells and cells incubated with 2% methyl sulfone.

[4] = tested on: CEM cells, leukemic T-cell lymphocytes; experiment: Apoptosis of leukemic lymphocytes, FITC-annexinV/propidium iodide microscopy; assay type: cell-based, human; details: 10^−7 M VNB, 20 hours
Method: as §1
CEM cells, leukemic T-cell lymphocytes obtained from a child with acute lymphocytic leukemia, were maintained in Petri dishes in MEM (minimal essential medium) with 7% fetal calf serum in a 5% CO2 incubator at 37° C. For experiments, methyl sulfone was added to the medium at concentrations from 0-6.0%. In control cells, no methyl sulfone was added. Cells (2×10^6 per ml) were incubated for 20 hrs in the presence or absence of methyl sulfone, and then assayed for apoptosis using FITC-annexinV/propidium iodide microscopy. Methyl sulfone was also compared to the anti-microtubule drug, vinblastine. Vinblastine (VNB) and its derivative, vincristine, are standard treatments for acute lymphocytic leukemia, as well as other cancers. We used the concentration of VNB that is found in the blood of subjects being treated with this drug (10^−7 M) (6,7).

Row | SMILES | effect on melanoma cells of osmolarity control substance [1] | window of concentrations between killing cancer cells and harming normal cells [2] | also measured
1 | NC(N)=O [urea, reference compound] | induced necrotic death | – | –
2 | CCS(C)(=O)=O [MES, methyl ethyl sulfone, reference compound] | – | narrow differential | –
3 | CCS(=O)(=O)CC [EES, ethyl ethyl sulfone, reference compound] | – | narrow differential | –
4 | CC[C@]1(O)C[C@@H]2CN(CCc3c([nH]c4ccccc34)[C@@](C(=O)OC)(c3cc4c(cc3OC)N(C)[C@H]3[C@@](O)(C(=O)OC)[C@H](OC(C)=O)[C@]5(CC)C=CCN6CC[C@]43[C@@H]65)C2)C1 [vinblastine, reference compound] | – | – | microtubules in control cells [3]: largely gone; apoptotic leukemic cells [4]: 48%
5 | C[S+](C)[O-] [DMSO, dimethyl sulfoxide, reference compound] | had no effect | – | –
